Test system: obese dyslipidemic, insulin resistant non-diabetic patients
Assay: Sensitization to insulin in obese dyslipidemic, insulin resistant non-diabetic patients
Type: in vivo, human
Method: Five obese dyslipidemic, insulin resistant non-diabetic patients were subjected to 4 weeks maintenance period on placebo followed by treatment p.o. with increasing daily doses ranging from 30-600 mg M16ββ per dose for a period of 4 weeks.

[1] = p.o. 30-600 mg per dose daily, 4 weeks

SMILES: CC(C)(CCCCCCCCCCC(C)(C)CC(=O)O)CC(=O)O [M16ββ, 3,3,14,14-tetramethylhexadecane-1,16-dioic acid]
- hypolipidemic efficacy (at daily doses below 200 mg): substantial hypolipidemic efficacy
- HOMA (homeostatic model assessment) [1]: decrease
- LDL-C [1]: no change
- VLDL-C [1]: robust decrease
- glucose uptake [1]: increased
- plasma insulin clearance [1]: increase
- plasma insulin levels [1]: decrease
- sensitization to insulin [1]: increased sensitization to insulin
- tolerability [1]: well tolerated in all dosages

— patent US20100240683A1, “COMBINATION THERAPY, COMPOSITION AND METHODS FOR THE TREATMENT OF CARDIOVASCULAR DISORDERS” (Syndromex Ltd., priority 2007, published 2010)
